The values that follow come from patent US4458077A, “Heterocyclic anti-ulcer agents” (American Home Products Corporation, priority 1982, dated 1984).

Structures are written as SMILES. Where two headings read alike, the source gives them in different places.

Data set [1] deals with H2 histamine receptors (Cavia porcellus, UniProt P47747). The experiment in a line: guinea pig heart atrium test: inhibition of histamine-induced positive chronotropic response (H2 antagonist activity). The procedure:
(§1) The results for some of the compounds of the invention in these procedures is presented at the end of the following examples, which will serve to illustrate the present invention.
The guniea pig heart atrium test is carried out as follows:
A guinea pig right atrium is suspended at 1 g. tension (isometric) in a thermostatically controlled (32° C.) tissue bath (10 ml) containing oxygenated (95% O2; 5% CO2) Krebs-Haenseleit buffer (pH 7.4). The tissue is allowed to stabilize over 1 hour. Individual contractions are recorded with a force-displacement transducer through a strain gauge coupler. A control dose-response curve to histamine in the above described tissue bath is obtained after which the tissue is washed 3 times and allowed to re-equilibrate to basal rate. The test compound is added to the tissue bath at the desired final concentration. Thirty minutes after addition of the compound, a fresh histamine dose response curve is again obtained. Then the response to histamine in the presence of antagonist is compared to the histamine control response. This procedure is repeated, using fresh tissues, for each concentration of antagonist tested. The result is expressed as the apparent dissociation constant (pA2) of the H2 antagonist as determined by standard procedures. Cimetidine is used as the standard for this test.

The subject of data set [2] is gastric acid secretion. The data set is described as follows: gastric secretion in the pylorus-ligated rat (modified Shay procedure). In kind it is in vivo. The following applies: 32 mg/kg, interduodenally (i.d.), pylorus-ligated male Charles River rats, 4 hours after ligation. The procedure:
as §1
The procedure for testing gastric secretion in the rat, a modification of the procedure of Shay et al., Gastroenterology, 26, 906-13 (1954) is carried out as follows:
Male Charles River rats weighing 200-300 grams are deprived of food but not water for 24 hours prior to use. Water is, however, withheld during the experiment. The rats are weighed, anesthetized, and the pylorus ligated according to the method of Shay et al. Treatment or vehicle control is then administered interduodenally (i.d.). Rats are housed 2/cage and sacrificed with CO2 four hours after ligation. The stomachs are removed, rinsed, and contents emptied into a graduated centrifuge tube. The tubes are centrifuged for 20 minutes at 2,000 RPM and the volume of gastric juice recorded. Any samples obviously contamined by feces, food or hemolysis are eliminated. An aliquot of each is frozen for later analysis of Na^+, K^+ and Cl^- concentration. The pH is measured and 1 ml. of gastric juice is titrated with 0.1N NaOH to a pH of 7.0-7.4. Titrable acid output is calculated in microequivalents and the percent inhibition of acid output is calculated as follows: [formula]

The conditions of data set [3]: background, cited from earlier work.
Setting [4] is: apparent dissociation constant (pA2) vs histamine, guinea pig right atrium, 32° C, pH 7.4, 30 min after compound, three experiments, read-out: pA2 Value (converted).

H2 histamine receptors, sequence (P47747 whole entry): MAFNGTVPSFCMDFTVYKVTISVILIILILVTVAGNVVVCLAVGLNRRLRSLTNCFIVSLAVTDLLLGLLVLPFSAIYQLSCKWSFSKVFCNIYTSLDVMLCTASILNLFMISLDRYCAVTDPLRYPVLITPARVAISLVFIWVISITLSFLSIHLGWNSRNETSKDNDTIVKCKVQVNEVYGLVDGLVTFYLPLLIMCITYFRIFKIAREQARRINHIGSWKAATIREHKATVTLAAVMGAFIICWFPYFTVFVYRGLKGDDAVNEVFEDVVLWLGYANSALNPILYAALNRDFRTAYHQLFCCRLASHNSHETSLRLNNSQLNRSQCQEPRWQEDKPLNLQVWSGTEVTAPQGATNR

Regarding `CNC(=C[N+](=O)[O-])NOCCOCc1ccc(CN(C)C)o1` [Example 2, N-[2-[[5-[(dimethylamino)methyl]-2-furanyl]methoxy]ethoxy]-N'-methyl-2-nitro-1,1-ethenediamine, ethanedioate], the Kb in data set [1] (setting [4]) is 9120 nM.

For `CNC(=S)NOCCOCc1ccc(CN(C)C)o1` [Example 4, N-[2-[[5-[(dimethylamino)methyl]-2-furanyl]methoxy]ethoxy]-N'-methyl-thiourea, 1/2 hydrate], the Kb in data set [1] (setting [4]) was 1260 nM.

As to `CNC(=C[N+](=O)[O-])NOCCCc1csc(NC(=N)N)n1` [Example 5, [4-[3-[[[1-(methylamino)-2-nitroethenyl]amino]oxy]propyl]-2-thiazolyl]guanidine], in data set [1] (printed in pA2 column, footnote *: KB value, result of only one experiment, guinea pig right atrium vs histamine, read-out: KB value), the Kb came out at 108 nM. Further, in data set [2], the “% Inhibition (of acid output)” value is reported as 72%. `CN/C(=N/CCSCc1nc[nH]c1C)NC#N` [cimetidine]: the “confusional states (limitation)” value in data set [3] (elderly patients) is on record as “a tendency to cause confusional states in elderly patients”. In addition, in data set [3] (patients), the “anti-androgenic activity (limitation)” value is reported as “anti-androgenic activity”.
